Here are results for 11 molecules from paper PMC4033654 (Journal of Medicinal Chemistry, 2014).

Structures are written as SMILES. Where only a bound is given, the exact number is not on record here.

One data set addresses recombinant TDP1 (Homo sapiens, UniProt Q9NUW8). In words: Gel-based assay measuring the inhibition of recombinant TDP1. Format: biochemical.
Data set [1] has as its system all human cancer cell lines successfully tested. In words: NCI60 anti-proliferative screen, all cell lines. It counts as cell-based.
The next data set has as its system TDP1. The settings on record: cited from earlier work.
Another data set concerns HCT-116. The settings on record: read-out: cytotoxicity GI50, colon HCT-116; cited from earlier work.
A further data set has as its system HOP-62. The settings on record: read-out: cytotoxicity GI50, lung HOP-62; cited from earlier work.
For a further data set, the system named is UACC-62. The settings on record: read-out: cytotoxicity GI50, melanoma UACC-62; cited from earlier work.
For the next data set, the system named is DU-145. The following applies: read-out: cytotoxicity GI50, prostate DU-145; cited from earlier work.
The next data set relates to MCF-7. The settings on record: read-out: cytotoxicity GI50, breast MCF-7; cited from earlier work.
Another data set relates to SN12C. The following applies: read-out: cytotoxicity GI50, renal SN12C; cited from earlier work.
Another data set relates to OVCAR-3. The settings on record: read-out: cytotoxicity GI50, ovarian OVCAR-3; cited from earlier work.
In the next data set the test system is ABCG2. The following applies: cited from earlier work.
In another data set the test system is MDR-1. The settings on record: cited from earlier work.

recombinant TDP1, sequence (Q9NUW8 whole entry): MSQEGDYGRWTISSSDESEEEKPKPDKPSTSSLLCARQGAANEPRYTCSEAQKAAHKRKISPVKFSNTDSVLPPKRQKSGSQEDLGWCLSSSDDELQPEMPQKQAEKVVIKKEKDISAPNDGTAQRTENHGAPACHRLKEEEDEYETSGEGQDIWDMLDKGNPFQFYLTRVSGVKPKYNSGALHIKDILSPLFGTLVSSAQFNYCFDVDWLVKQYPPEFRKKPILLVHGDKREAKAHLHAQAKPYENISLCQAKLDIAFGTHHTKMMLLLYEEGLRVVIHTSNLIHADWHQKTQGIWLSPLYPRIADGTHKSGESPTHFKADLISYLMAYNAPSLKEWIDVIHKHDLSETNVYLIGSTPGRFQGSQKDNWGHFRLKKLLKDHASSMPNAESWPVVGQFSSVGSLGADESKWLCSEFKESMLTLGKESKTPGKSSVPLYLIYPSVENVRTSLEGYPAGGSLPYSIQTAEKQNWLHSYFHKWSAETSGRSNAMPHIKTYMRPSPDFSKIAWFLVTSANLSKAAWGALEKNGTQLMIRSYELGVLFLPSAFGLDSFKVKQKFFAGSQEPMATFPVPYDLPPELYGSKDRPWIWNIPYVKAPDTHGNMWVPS

For the molecule `COc1cc2c(=O)n(CCCN3CCOCC3)c3c(c2cc1OCCCN1CCOCC1)C(=O)c1cc2c(cc1-3)OCO2` [compound 20, 3-Methoxy-2-(3-morpholinopropoxy)-6-(3-morpholinopropyl)-5H-[1,3]dioxolo[4′,5′:5,6]indeno[1,2-c]isoquinoline-5,12(6H)-dione], the “TDP1 inhibitory activity” value on recombinant TDP1 is listed as “no TDP1 inhibitory activity”. In addition, in data set [1], the “GI50 against various cell lines” value is recorded as “submicromolar”.
Consider `COc1cc2c(=O)n(CCCN3CCOCC3)c3c(c2cc1OCCCN1CCN(C)CC1)C(=O)c1cc2c(cc1-3)OCO2` [compound 21, 3-Methoxy-2-(3-(4-methylpiperazin-1-yl)propoxy)-6-(3-morpholinopropyl)-5H-[1,3]dioxolo[4′,5′:5,6]indeno[1,2-c]isoquinoline-5,12(6H)-dione], for which the “TDP1 inhibitory activity” value on recombinant TDP1 is “no TDP1 inhibitory activity”.
Consider `N=C(N)c1ccc(-c2ccc(-c3ccc(C(=N)N)cc3)o2)cc1` [Furamidine (8), Furamidine], for which, in the data set with TDP1, the “TDP1 inhibitor potency” value was “micromolar-range”.
In general, GI50 refers to the concentration at which growth is held to half of that of the control. As to `COc1cc2c3c(n(CCCNCCO)c(=O)c2cc1OC)-c1cc2c(cc1C3=O)OCO2` [compound 5], the GI50 in the data set on HCT-116 was 100 nM; in the data set with HOP-62, 20 nM; in the data set on UACC-62, 30 nM; in the data set on DU-145, under 10 nM; in the data set with MCF-7, under 10 nM; in the data set on SN12C, under 10 nM. The 50% growth inhibitory concentration (GI50) in the data set on OVCAR-3 is 500 nM.
Turning to `COc1cc2c3c(n(CCCn4ccnc4)c(=O)c2cc1OC)-c1cc2c(cc1C3=O)OCO2` [indimitecan (7), indimitecan], in the data set on ABCG2, the “substrate for the ABCG2 efflux pump” value is recorded as “less affected than the camptothecins”. Besides, in the data set with MDR-1, the “substrate for the MDR-1 efflux pump” value was “less affected than the camptothecins”.
`COc1cc2c3c(n(CCCN4CCOCC4)c(=O)c2cc1OC)-c1cc2c(cc1C3=O)OCO2` [Indotecan (6), indotecan]: in the data set on ABCG2, the “substrate for the ABCG2 efflux pump” value is “not a substrate”. The “substrate for the MDR-1 efflux pump” value with MDR-1 is given as “not a substrate”.
Regarding `COc1cc2c(=O)n(CCCN3CCOCC3)c3c(c2cc1OCCCN)C(=O)c1cc2c(cc1-3)OCO2.Cl` [compound 17, 2-(3-Aminopropoxy)-3-methoxy-6-(3-morpholinopropyl)-5H-[1,3]dioxolo[4′,5′:5,6]indeno[1,2-c]isoquinoline-5,12(6H)-dione], the “GI50 against various cell lines” value in [1] is “submicromolar”.
With `COc1cc2c(=O)n(CCCN3CCOCC3)c3c(c2cc1O)C(=O)c1cc2c(cc1-3)OCO2` [compound 13], the GI50 in the data set with MCF-7 is 100 nM.
Turning to `COC(=O)COc1cc2c3c(n(CCCN4CCOCC4)c(=O)c2cc1OC)-c1cc2c(cc1C3=O)OCO2` [compound 24, Methyl 2-((3-Methoxy-6-(3-morpholinopropyl)-5,12-dioxo-6,12-dihydro-5H-[1,3]dioxolo[4′,5′:5,6]indeno[1,2-c]isoquinolin-2-yl)oxy)acetate], the “GI50 against various cell lines” value in data set [1] was “low micromolar”.
Consider `COc1cc2c(=O)n(CCCN3CCOCC3)c3c(c2cc1OCCCN1CCCCC1)C(=O)c1cc2c(cc1-3)OCO2` [compound 22, 3-Methoxy-6-(3-morpholinopropyl)-2-(3-(piperidin-1-yl)propoxy)-5H-[1,3]dioxolo[4′,5′:5,6]indeno[1,2-c]isoquinoline-5,12(6H)-dione], for which the “GI50 against various cell lines” value in data set [1] was “low micromolar”.
As for `C=CCOc1cc2c3c(n(CCCN4CCOCC4)c(=O)c2cc1OC)-c1cc2c(cc1C3=O)OCO2` [compound 15, 2-(Allyloxy)-3-methoxy-6-(3-morpholinopropyl)-5H-[1,3]dioxolo[4′,5′:5,6]indeno [1,2-c]isoquinoline-5,12(6H)-dione], the “TDP1 inhibitory activity” value at recombinant TDP1 is “no detectable TDP1 inhibitory activity”. Further, the “GI50 against various cell lines” value in data set [1] is on record as “submicromolar”.
